Columns and labels:
P2X7 receptor = P2X7 receptor (Homo sapiens (Human), UniProt Q99572); test: Human P2X7 channel calcium-influx assay (Fluo-8 NW, FLIPR TETRA, Bz-ATP stimulation); assay type: cell-based; conditions: HEK-293 cells stably transfected with P2X7 receptor, Low Divalent Cation Assay Buffer, read-out: hP2X7 IC50
Experimental: (§1) Extracellular binding of Bz-ATP to P2X7 receptor opens the channel and allows Ca^2+ influx into the cells. This Ca^2+ entry was measured in HEK-293 cells stably transfected with P2X7 receptor using Screen Quest™ Fluo-8 No Wash Calcium Assay Kit (AAt Bioquest®, cat. 36316). Once inside the cell, the lipophilic blocking groups of Fluo-8 are cleaved by non-specific cell esterases, resulting in a negatively-charged fluorescent dye that stays inside cells. Its fluorescence increases upon binding to calcium. When HEK-293/P2X7 cells are stimulated with Bz-ATP, Ca^2+ enters the cells and the fluorescence of Fluo-8 NW increases.
(§2) HEK-293 cells stably transfected with P2X7 receptor were seeded overnight in growth medium at 10,000 to 20,000 cells/well in 384-well plate. 24 hours later, the medium was removed, and the cells were pre-loaded at RT for 1 hour with 20 μL/w of Fluo-8 NW. Then 10 μL/w of test compounds and reference antagonist A438079 at 3X-concentration were injected with the […] and the kinetic response over a period of five minutes was monitored.

mP2X7 = mP2X7 (Mus musculus (Mouse), UniProt Q9Z1M0); test: mP2X7 channel calcium-influx assay (Fluo-8 NW, FLIPR TETRA, Bz-ATP stimulation); assay type: cell-based
Chain of mP2X7 (Q9Z1M0 whole entry): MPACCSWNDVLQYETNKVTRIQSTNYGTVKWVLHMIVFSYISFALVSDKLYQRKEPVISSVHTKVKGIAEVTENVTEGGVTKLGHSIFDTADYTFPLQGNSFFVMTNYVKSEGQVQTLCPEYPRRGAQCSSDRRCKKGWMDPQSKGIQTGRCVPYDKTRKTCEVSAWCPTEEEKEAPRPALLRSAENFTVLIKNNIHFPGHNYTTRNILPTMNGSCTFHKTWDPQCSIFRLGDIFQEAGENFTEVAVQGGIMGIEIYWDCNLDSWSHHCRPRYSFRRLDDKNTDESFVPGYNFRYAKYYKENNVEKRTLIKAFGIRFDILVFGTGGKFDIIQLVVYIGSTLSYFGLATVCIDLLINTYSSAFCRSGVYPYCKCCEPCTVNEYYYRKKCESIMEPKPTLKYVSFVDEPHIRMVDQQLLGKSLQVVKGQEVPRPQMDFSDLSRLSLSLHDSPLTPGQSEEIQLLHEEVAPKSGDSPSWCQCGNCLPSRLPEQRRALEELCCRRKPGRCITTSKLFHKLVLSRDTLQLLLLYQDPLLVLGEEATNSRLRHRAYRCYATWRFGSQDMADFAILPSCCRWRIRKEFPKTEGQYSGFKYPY
Experimental: as §1, §2

Chain of P2X7 receptor (Q99572 whole entry): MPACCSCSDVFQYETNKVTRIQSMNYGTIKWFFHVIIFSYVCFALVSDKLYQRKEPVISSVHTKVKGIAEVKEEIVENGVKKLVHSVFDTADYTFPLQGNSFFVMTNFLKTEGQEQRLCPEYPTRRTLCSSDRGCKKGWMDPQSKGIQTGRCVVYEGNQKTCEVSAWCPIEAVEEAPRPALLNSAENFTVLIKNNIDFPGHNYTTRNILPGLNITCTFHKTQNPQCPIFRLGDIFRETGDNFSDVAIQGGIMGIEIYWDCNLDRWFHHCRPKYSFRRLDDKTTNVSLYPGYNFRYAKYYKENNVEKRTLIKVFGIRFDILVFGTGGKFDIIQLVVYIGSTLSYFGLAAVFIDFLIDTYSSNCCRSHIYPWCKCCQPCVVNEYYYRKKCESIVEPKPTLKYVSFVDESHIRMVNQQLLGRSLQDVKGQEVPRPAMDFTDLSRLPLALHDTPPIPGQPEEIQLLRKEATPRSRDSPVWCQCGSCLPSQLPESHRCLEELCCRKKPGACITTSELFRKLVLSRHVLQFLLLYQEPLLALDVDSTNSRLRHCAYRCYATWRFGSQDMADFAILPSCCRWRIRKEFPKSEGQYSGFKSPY

O=C(NCC(c1scnc1C(F)F)N1CCC(Oc2nccn3nccc23)CC1)c1c(F)cccc1Cl (stereo not shown) [Example 44, 2-Chloro-N-{2-[4-(difluoromethyl)-1,3-thiazol-5-yl]-2-(4-{pyrazolo[1,5-a]pyrazin-4-yloxy}piperidin-1-yl)ethyl}-6-fluorobenzamide]
IC50 (P2X7 receptor): 27.9 nM | IC50 (mP2X7): 30.6 nM

O=C(NCC(c1scnc1C(F)F)N1CCC(Oc2ncccc2Cl)CC1)c1c(F)cccc1Cl (stereo not shown) [Example 47, 2-Chloro-N-(2-{4-[(3-chloropyridin-2-yl)oxy]piperidin-1-yl}-2-[4-(difluoromethyl)-1,3-thiazol-5-yl]ethyl)-6-fluorobenzamide]
IC50 (P2X7 receptor): 31 nM | IC50 (mP2X7): 43.9 nM

O=C(NCC(c1scnc1C(F)F)N1CCC(Oc2nccc3ncccc23)CC1)c1c(F)cccc1Cl (stereo not shown) [Example 49, 2-Chloro-N-{2-[4-(difluoromethyl)-1,3-thiazol-5-yl]-2-[4-(1,6-naphthyridin-5-yloxy)piperidin-1-yl]ethyl}-6-fluorobenzamide]
IC50 (P2X7 receptor): 19.4 nM | IC50 (mP2X7): 19.5 nM

N#Cc1cnccc1OC1CCN(C(CNC(=O)c2c(F)cccc2Cl)c2scnc2C(F)F)CC1 (stereo not shown) [Example 50, 2-Chloro-N-(2-{4-[(3-cyanopyridin-4-yl)oxy]piperidin-1-yl}-2-[4-(difluoromethyl)-1,3-thiazol-5-yl]ethyl)-6-fluorobenzamide]
IC50 (P2X7 receptor): 89 nM | IC50 (mP2X7): 224 nM

Cn1ncc2c(OC3CCN(C(CNC(=O)c4c(F)cccc4Cl)c4scnc4C(F)F)CC3)ncnc21 (stereo not shown) [Example 51, 2-Chloro-N-{2-[4-(difluoromethyl)-1,3-thiazol-5-yl]-2-[4-({1-methyl-1H-pyrazolo[3,4-d]pyrimidin-4-yl}oxy)piperidin-1-yl]ethyl}-6-fluorobenzamide]
IC50 (P2X7 receptor): 62.2 nM | IC50 (mP2X7): 68.7 nM

Cc1nnc2c(OC3CCN(C(CNC(=O)c4c(F)cccc4Cl)c4scnc4C(F)F)CC3)nccn12 (stereo not shown) [Example 52, 2-Chloro-N-{2-[4-(difluoromethyl)-1,3-thiazol-5-yl]-2-[4-({3-methyl-[1,2,4]triazolo[4,3-a]pyrazin-8-yl}oxy)piperidin-1-yl]ethyl}-6-fluorobenzamide]
IC50 (P2X7 receptor): 274 nM | IC50 (mP2X7): 571 nM

Cc1nsc(OC2CCN(C(CNC(=O)c3c(F)cccc3Cl)c3scnc3C(F)F)CC2)c1C#N (stereo not shown) [Example 53, 2-Chloro-N-(2-{4-[(4-cyano-3-methyl-1,2-thiazol-5-yl)oxy]piperidin-1-yl}-2-[4-(difluoromethyl)-1,3-thiazol-5-yl]ethyl)-6-fluorobenzamide]
IC50 (P2X7 receptor): 41.5 nM | IC50 (mP2X7): 38.7 nM

Cc1cc(OC2CCN(C(CNC(=O)c3c(F)cccc3Cl)c3scnc3C(F)F)CC2)nc(F)n1 (stereo not shown) [Example 54, 2-Chloro-N-{2-[4-(difluoromethyl)-1,3-thiazol-5-yl]-2-{4-[(2-fluoro-6-methylpyrimidin-4-yl)oxy]piperidin-1-yl}ethyl}-6-fluorobenzamide]
IC50 (P2X7 receptor): 22.8 nM | IC50 (mP2X7): 52.9 nM

Cc1cnc(F)nc1OC1CCN(C(CNC(=O)c2c(F)cccc2Cl)c2scnc2C(F)F)CC1 (stereo not shown) [Example 55, 2-Chloro-N-{2-[4-(difluoromethyl)-1,3-thiazol-5-yl]-2-{4-[(2-fluoro-5-methylpyrimidin-4-yl)oxy]piperidin-1-yl}ethyl}-6-fluorobenzamide]
IC50 (P2X7 receptor): 22.9 nM | IC50 (mP2X7): 34 nM

Cc1ncnc(OC2CCN(C(CNC(=O)c3c(F)cccc3Cl)c3scnc3C(F)F)CC2)c1F (stereo not shown) [Example 56, 2-Chloro-N-{2-[4-(difluoromethyl)-1,3-thiazol-5-yl]-2-{4-[(5-fluoro-6-methylpyrimidin-4-yl)oxy]piperidin-1-yl}ethyl}-6-fluorobenzamide]
IC50 (P2X7 receptor): 53.8 nM | IC50 (mP2X7): 82 nM

O=C(NCC(c1scnc1C(F)F)N1CCC(Oc2cncc(-n3cccn3)n2)CC1)c1c(F)cccc1Cl (stereo not shown) [Example 58, 2-Chloro-N-{2-[4-(difluoromethyl)-1,3-thiazol-5-yl]-2-(4-{[6-(1H-pyrazol-1-yl)pyrazin-2-yl]oxy}piperidin-1-yl)ethyl}-6-fluorobenzamide]
IC50 (P2X7 receptor): 27.4 nM | IC50 (mP2X7): 11.5 nM

O=C(NCC(c1scnc1C(F)F)N1CCC(Oc2ncccc2C(F)(F)F)CC1)c1c(F)cccc1Cl (stereo not shown) [Example 59, 2-Chloro-N-{2-[4-(difluoromethyl)-1,3-thiazol-5-yl]-2-(4-{[3-(trifluoromethyl)pyridin-2-yl]oxy}piperidin-1-yl)ethyl}-6-fluorobenzamide]
IC50 (P2X7 receptor): 29.4 nM | IC50 (mP2X7): 56.1 nM

COc1nccc(OC2CCN(C(CNC(=O)c3c(F)cccc3Cl)c3scnc3C(F)F)CC2)n1 (stereo not shown) [Example 63, 2-Chloro-N-{2-[4-(difluoromethyl)-1,3-thiazol-5-yl]-2-{4-[(2-methoxypyrimidin-4-yl)oxy]piperidin-1-yl}ethyl}-6-fluorobenzamide]
IC50 (P2X7 receptor): 41.2 nM | IC50 (mP2X7): 49.3 nM

COc1ccnc(OC2CCN(C(CNC(=O)c3c(F)cccc3Cl)c3scnc3C(F)F)CC2)n1 (stereo not shown) [Example 64, 2-Chloro-N-{2-[4-(difluoromethyl)-1,3-thiazol-5-yl]-2-{4-[(4-methoxypyrimidin-2-yl)oxy]piperidin-1-yl}ethyl}-6-fluorobenzamide]
IC50 (P2X7 receptor): 65.8 nM | IC50 (mP2X7): 209 nM

Cc1nc(C)c(F)c(OC2CCN(C(CNC(=O)c3c(F)cccc3Cl)c3scnc3C(F)F)CC2)n1 (stereo not shown) [Example 67, 2-Chloro-N-{2-[4-(difluoromethyl)-1,3-thiazol-5-yl]-2-{4-[(5-fluoro-2,6-dimethylpyrimidin-4-yl)oxy]piperidin-1-yl}ethyl}-6-fluorobenzamide]
IC50 (P2X7 receptor): 62.3 nM | IC50 (mP2X7): 64.5 nM

O=C(NCC(c1scnc1C(F)F)N1CCC(Oc2cnccn2)CC1)c1c(F)cccc1Cl (stereo not shown) [Example 70, 2-Chloro-N-{2-[4-(difluoromethyl)-1,3-thiazol-5-yl]-2-[4-(pyrazin-2-yloxy)piperidin-1-yl]ethyl}-6-fluorobenzamidev]
IC50 (P2X7 receptor): 50 nM | IC50 (mP2X7): 101 nM

O=C(NCC(c1scnc1C(F)F)N1CCC(Oc2cccnn2)CC1)c1c(F)cccc1Cl (stereo not shown) [Example 71, 2-Chloro-N-{2-[4-(difluoromethyl)-1,3-thiazol-5-yl]-2-[4-(pyridazin-3-yloxy)piperidin-1-yl]ethyl}-6-fluorobenzamide]
IC50 (P2X7 receptor): 58.9 nM | IC50 (mP2X7): 222 nM

O=C(NCC(c1scnc1C(F)F)N1CCC(Oc2cccc(F)n2)CC1)c1c(F)cccc1Cl (stereo not shown) [Example 72, 2-Chloro-N-{2-[4-(difluoromethyl)-1,3-thiazol-5-yl]-2-{4-[(6-fluoropyridin-2-yl)oxy]piperidin-1-yl}ethyl}-6-fluorobenzamide]
IC50 (P2X7 receptor): 11.9 nM | IC50 (mP2X7): 29.4 nM

N#Cc1ccnc(OC2CCN(C(CNC(=O)c3c(F)cccc3Cl)c3scnc3C(F)F)CC2)c1 (stereo not shown) [Example 79, 2-Chloro-N-(2-{4-[(4-cyanopyridin-2-yl)oxy]piperidin-1-yl}-2-[4-(difluoromethyl)-1,3-thiazol-5-yl]ethyl)-6-fluorobenzamide]
IC50 (P2X7 receptor): 30.1 nM | IC50 (mP2X7): 41.4 nM

O=C(NCC(c1scnc1C(F)F)N1CCC(COc2nccs2)CC1)c1c(F)cccc1Cl (stereo not shown) [Example 82, 2-chloro-N-{2-[4-(difluoromethyl)-1,3-thiazol-5-yl]-2-{4-[(1,3-thiazol-2-yloxy)methyl]piperidin-1-yl}ethyl}-6-fluorobenzamide]
IC50 (P2X7 receptor): 15.2 nM | IC50 (mP2X7): 41.9 nM

O=C(NCC(c1scnc1C(F)F)N1CCC(COc2nc(Cl)cs2)CC1)c1c(F)cccc1Cl (stereo not shown) [Example 83, 2-Chloro-N-[2-(4-{[(4-chloro-1,3-thiazol-2-yl)oxy]methyl}piperidin-1-yl)-2-[4-(difluoromethyl)-1,3-thiazol-5-yl]ethyl]-6-fluorobenzamide]
IC50 (P2X7 receptor): 13 nM | IC50 (mP2X7): 32.7 nM

Cc1cccc(OCC2CCN(C(CNC(=O)c3c(F)cccc3Cl)c3scnc3C(F)F)CC2)n1 (stereo not shown) [Example 88, 2-Chloro-N-{2-[4-(difluoromethyl)-1,3-thiazol-5-yl]-2-(4-{[(6-methylpyridin-2-yl)oxy]methyl}piperidin-1-yl)ethyl}-6-fluorobenzamide]
IC50 (P2X7 receptor): 27.8 nM | IC50 (mP2X7): 25.2 nM

Cc1ccnc(OCC2CCN(C(CNC(=O)c3c(F)cccc3Cl)c3scnc3C(F)F)CC2)c1 (stereo not shown) [Example 89, 2-Chloro-N-{2-[4-(difluoromethyl)-1,3-thiazol-5-yl]-2-(4-{[(4-methylpyridin-2-yl)oxy]methyl}piperidin-1-yl)ethyl}-6-fluorobenzamide]
IC50 (P2X7 receptor): 29.2 nM | IC50 (mP2X7): 24.1 nM

N#Cc1ncccc1OCC1CCN(C(CNC(=O)c2c(F)cccc2Cl)c2scnc2C(F)F)CC1 (stereo not shown) [Example 90, 2-Chloro-N-[2-(4-{[(2-cyanopyridin-3-yl)oxy]methyl}piperidin-1-yl)-2-[4-(difluoromethyl)-1,3-thiazol-5-yl]ethyl]-6-fluorobenzamide]
IC50 (P2X7 receptor): 20 nM | IC50 (mP2X7): 25.7 nM

N#Cc1nccnc1OCC1CCN(C(CNC(=O)c2c(F)cccc2Cl)c2scnc2C(F)F)CC1 (stereo not shown) [Example 92, 2-Chloro-N-[2-(4-{[(3-cyanopyrazin-2-yl)oxy]methyl}piperidin-1-yl)-2-[4-(difluoromethyl)-1,3-thiazol-5-yl]ethyl]-6-fluorobenzamide]
IC50 (P2X7 receptor): 22.5 nM | IC50 (mP2X7): 33.5 nM

O=C(NCC(c1scnc1C(F)F)N1CCC(COc2nnnn2-c2ccccc2)CC1)c1c(F)cccc1Cl (stereo not shown) [Example 97, 2-Chloro-N-{2-[4-(difluoromethyl)-1,3-thiazol-5-yl]-2-(4-{[(1-phenyl-1H-1,2,3,4-tetrazol-5-yl)oxy]methyl}piperidin-1-yl)ethyl}-6-fluorobenzamide]
IC50 (P2X7 receptor): 34 nM | IC50 (mP2X7): 13.8 nM

From US20240034737A1, “Heterocyclic Derivatives as P2X7 Receptor Antagonists” (BREYE THERAPEUTICS APS, priority 2020, published 2024)
